# Results taken from the kinase profiling compilation of Christmann-Franck et al. (2016).
# Tested on: ARAF (human), P10398 [Y301D/Y302D]
# Assay: radiometric filter-binding kinase assay, Kinase HotSpot
# Settings: compound 0.5 µM; ATP 10 µM
row,SMILES,residual activity [%]
1,Clc1ccc(Nc2nnc(Cc3ccncc3)c3ccccc23)cc1,97.6
2,CS(=O)c1ccc(-c2nc(-c3ccc(F)cc3)c(-c3ccncc3)[nH]2)cc1 (centres undefined),42.7

# Target: AURKC (human) (UniProt Q9UQB9)
# Assay: as above
# Settings: compound 0.5 µM; ATP 10 µM
# AURKC (human), sequence (Q9UQB9 whole entry, looked up): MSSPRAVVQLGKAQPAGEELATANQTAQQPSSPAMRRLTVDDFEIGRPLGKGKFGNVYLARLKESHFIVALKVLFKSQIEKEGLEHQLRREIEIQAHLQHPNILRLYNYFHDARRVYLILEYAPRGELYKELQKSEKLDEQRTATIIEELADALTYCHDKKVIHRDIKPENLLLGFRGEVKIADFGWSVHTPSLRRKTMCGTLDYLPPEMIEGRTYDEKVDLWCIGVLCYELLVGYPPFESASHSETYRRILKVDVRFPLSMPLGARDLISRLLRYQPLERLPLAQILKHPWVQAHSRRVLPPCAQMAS
row,SMILES,residual activity [%]
1,COc1cc2nccc(Oc3ccc(NC(=S)NC(=O)c4ccccc4C)cc3)c2cc1OC,30.2
2,NC(=O)c1ccc(N(C(N)=O)c2c(F)cccc2F)nc1-c1ccc(F)cc1F,83.8
3,Clc1ccc(Nc2nnc(Cc3ccncc3)c3ccccc23)cc1,87
4,Cc1cc2ncc(-c3ccccc3)nc2cc1C,92.1
5,CS(=O)c1ccc(-c2nc(-c3ccc(F)cc3)c(-c3ccncc3)[nH]2)cc1 (centres undefined),98.5

# Target: BLK (human) (UniProt P51451)
# Assay: as above
# Settings: compound 0.5 µM; ATP 10 µM
# BLK (human), sequence (P51451 whole entry, looked up): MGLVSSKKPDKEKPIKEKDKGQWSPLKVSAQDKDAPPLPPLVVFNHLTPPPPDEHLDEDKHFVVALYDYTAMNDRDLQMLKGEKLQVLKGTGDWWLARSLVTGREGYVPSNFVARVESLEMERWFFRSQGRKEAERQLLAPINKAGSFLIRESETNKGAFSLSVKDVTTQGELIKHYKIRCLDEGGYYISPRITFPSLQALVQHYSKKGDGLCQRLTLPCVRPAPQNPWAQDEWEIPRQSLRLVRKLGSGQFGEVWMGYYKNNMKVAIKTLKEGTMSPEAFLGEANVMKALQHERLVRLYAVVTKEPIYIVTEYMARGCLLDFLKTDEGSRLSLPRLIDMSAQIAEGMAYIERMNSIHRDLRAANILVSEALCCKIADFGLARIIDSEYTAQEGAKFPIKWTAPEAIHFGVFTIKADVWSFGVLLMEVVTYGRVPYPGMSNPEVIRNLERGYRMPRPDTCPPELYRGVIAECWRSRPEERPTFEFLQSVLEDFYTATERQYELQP
row,SMILES,residual activity [%]
1,COc1cc2nccc(Oc3ccc(NC(=S)NC(=O)c4ccccc4C)cc3)c2cc1OC,8.59
2,NC(=O)c1ccc(N(C(N)=O)c2c(F)cccc2F)nc1-c1ccc(F)cc1F,100
3,Clc1ccc(Nc2nnc(Cc3ccncc3)c3ccccc23)cc1,105
4,Cc1cc2ncc(-c3ccccc3)nc2cc1C,96.5
5,CS(=O)c1ccc(-c2nc(-c3ccc(F)cc3)c(-c3ccncc3)[nH]2)cc1 (centres undefined),102

# Target: BRAF (human) (UniProt P15056)
# Assay: as above
# Settings: compound 0.5 µM; ATP 10 µM
row,SMILES,residual activity [%]
1,Clc1ccc(Nc2nnc(Cc3ccncc3)c3ccccc23)cc1,92.2
2,CS(=O)c1ccc(-c2nc(-c3ccc(F)cc3)c(-c3ccncc3)[nH]2)cc1 (centres undefined),78.8

# Target: CAMK4 (human) (UniProt Q16566)
# Assay: as above
# Settings: compound 0.5 µM; ATP 10 µM
# CAMK4 (human), sequence (Q16566 whole entry, looked up): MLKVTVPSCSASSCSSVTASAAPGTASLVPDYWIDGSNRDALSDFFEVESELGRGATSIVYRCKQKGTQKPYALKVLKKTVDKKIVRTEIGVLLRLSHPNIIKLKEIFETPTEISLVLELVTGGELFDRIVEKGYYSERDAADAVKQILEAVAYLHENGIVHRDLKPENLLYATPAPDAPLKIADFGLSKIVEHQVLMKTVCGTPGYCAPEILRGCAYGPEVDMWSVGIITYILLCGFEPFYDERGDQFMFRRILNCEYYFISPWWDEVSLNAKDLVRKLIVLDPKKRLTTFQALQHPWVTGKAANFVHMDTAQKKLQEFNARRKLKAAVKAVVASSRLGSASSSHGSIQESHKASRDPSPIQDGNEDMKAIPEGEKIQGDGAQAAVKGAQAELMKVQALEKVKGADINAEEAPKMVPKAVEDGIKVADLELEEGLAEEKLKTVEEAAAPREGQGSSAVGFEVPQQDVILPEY
row,SMILES,residual activity [%]
1,COc1cc2nccc(Oc3ccc(NC(=S)NC(=O)c4ccccc4C)cc3)c2cc1OC,103
2,NC(=O)c1ccc(N(C(N)=O)c2c(F)cccc2F)nc1-c1ccc(F)cc1F,91.9
3,Clc1ccc(Nc2nnc(Cc3ccncc3)c3ccccc23)cc1,93.4
4,Cc1cc2ncc(-c3ccccc3)nc2cc1C,98.3
5,CS(=O)c1ccc(-c2nc(-c3ccc(F)cc3)c(-c3ccncc3)[nH]2)cc1 (centres undefined),101

# Target: CDK2 CCNA2 (human) (UniProt P24941+P20248)
# Assay: as above
# Settings: compound 0.5 µM; ATP 10 µM
row,SMILES,residual activity [%]
1,COc1cc2nccc(Oc3ccc(NC(=S)NC(=O)c4ccccc4C)cc3)c2cc1OC,94.2
2,NC(=O)c1ccc(N(C(N)=O)c2c(F)cccc2F)nc1-c1ccc(F)cc1F,87.8
3,Clc1ccc(Nc2nnc(Cc3ccncc3)c3ccccc23)cc1,87.7
4,Cc1cc2ncc(-c3ccccc3)nc2cc1C,99.3
5,CS(=O)c1ccc(-c2nc(-c3ccc(F)cc3)c(-c3ccncc3)[nH]2)cc1 (centres undefined),101

# Target: CDK9 CCNT1 (human) (UniProt P50750+O60563)
# Assay: as above
# Settings: compound 0.5 µM; ATP 10 µM
row,SMILES,residual activity [%]
1,COc1cc2nccc(Oc3ccc(NC(=S)NC(=O)c4ccccc4C)cc3)c2cc1OC,104
2,NC(=O)c1ccc(N(C(N)=O)c2c(F)cccc2F)nc1-c1ccc(F)cc1F,96.7
3,Clc1ccc(Nc2nnc(Cc3ccncc3)c3ccccc23)cc1,94.9
4,Cc1cc2ncc(-c3ccccc3)nc2cc1C,93.9
5,CS(=O)c1ccc(-c2nc(-c3ccc(F)cc3)c(-c3ccncc3)[nH]2)cc1 (centres undefined),83.8

# Target: CHEK1 (human) (UniProt O14757)
# Assay: as above
# Settings: compound 0.5 µM; ATP 10 µM
# CHEK1 (human), sequence (O14757 whole entry, looked up): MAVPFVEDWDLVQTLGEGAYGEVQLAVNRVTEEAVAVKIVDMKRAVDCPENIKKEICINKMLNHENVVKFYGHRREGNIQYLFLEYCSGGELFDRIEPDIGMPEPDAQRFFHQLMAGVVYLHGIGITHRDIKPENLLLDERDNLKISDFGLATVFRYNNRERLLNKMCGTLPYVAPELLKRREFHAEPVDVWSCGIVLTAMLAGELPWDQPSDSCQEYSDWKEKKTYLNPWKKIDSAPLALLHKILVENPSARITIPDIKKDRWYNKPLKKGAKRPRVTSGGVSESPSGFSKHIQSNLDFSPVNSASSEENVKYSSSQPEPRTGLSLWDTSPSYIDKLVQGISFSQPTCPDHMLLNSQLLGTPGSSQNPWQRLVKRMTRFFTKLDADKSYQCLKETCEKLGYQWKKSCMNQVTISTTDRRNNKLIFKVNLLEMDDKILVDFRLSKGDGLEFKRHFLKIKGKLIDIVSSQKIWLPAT
row,SMILES,residual activity [%]
1,COc1cc2nccc(Oc3ccc(NC(=S)NC(=O)c4ccccc4C)cc3)c2cc1OC,95.1
2,NC(=O)c1ccc(N(C(N)=O)c2c(F)cccc2F)nc1-c1ccc(F)cc1F,89.2
3,Clc1ccc(Nc2nnc(Cc3ccncc3)c3ccccc23)cc1,96.5
4,Cc1cc2ncc(-c3ccccc3)nc2cc1C,94.2
5,CS(=O)c1ccc(-c2nc(-c3ccc(F)cc3)c(-c3ccncc3)[nH]2)cc1 (centres undefined),97.3

# Target: CLK3 (human) (UniProt P49761)
# Assay: as above
# Settings: compound 0.5 µM; ATP 10 µM
row,SMILES,residual activity [%]
1,COc1cc2nccc(Oc3ccc(NC(=S)NC(=O)c4ccccc4C)cc3)c2cc1OC,93.2
2,NC(=O)c1ccc(N(C(N)=O)c2c(F)cccc2F)nc1-c1ccc(F)cc1F,112
3,Clc1ccc(Nc2nnc(Cc3ccncc3)c3ccccc23)cc1,105
4,Cc1cc2ncc(-c3ccccc3)nc2cc1C,92.8
5,CS(=O)c1ccc(-c2nc(-c3ccc(F)cc3)c(-c3ccncc3)[nH]2)cc1 (centres undefined),99.1

# Target: CSK (human) (UniProt P41240)
# Assay: as above
# Settings: compound 0.5 µM; ATP 10 µM
# CSK (human), sequence (P41240 whole entry, looked up): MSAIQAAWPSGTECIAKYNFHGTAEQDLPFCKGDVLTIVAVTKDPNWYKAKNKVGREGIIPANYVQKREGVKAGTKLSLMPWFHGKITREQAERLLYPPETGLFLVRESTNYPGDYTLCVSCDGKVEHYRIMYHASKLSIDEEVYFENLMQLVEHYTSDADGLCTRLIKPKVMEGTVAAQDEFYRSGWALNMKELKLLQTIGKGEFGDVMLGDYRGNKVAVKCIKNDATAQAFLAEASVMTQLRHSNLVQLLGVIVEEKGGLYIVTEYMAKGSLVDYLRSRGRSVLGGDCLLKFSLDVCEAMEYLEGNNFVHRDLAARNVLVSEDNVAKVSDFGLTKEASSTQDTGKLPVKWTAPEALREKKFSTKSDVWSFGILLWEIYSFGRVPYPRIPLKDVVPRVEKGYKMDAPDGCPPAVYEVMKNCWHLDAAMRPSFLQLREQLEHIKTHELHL
row,SMILES,residual activity [%]
1,COc1cc2nccc(Oc3ccc(NC(=S)NC(=O)c4ccccc4C)cc3)c2cc1OC,75.3
2,NC(=O)c1ccc(N(C(N)=O)c2c(F)cccc2F)nc1-c1ccc(F)cc1F,90
3,Clc1ccc(Nc2nnc(Cc3ccncc3)c3ccccc23)cc1,87.6
4,Cc1cc2ncc(-c3ccccc3)nc2cc1C,96.5
5,CS(=O)c1ccc(-c2nc(-c3ccc(F)cc3)c(-c3ccncc3)[nH]2)cc1 (centres undefined),87.7

# Target: CSNK2A2 (human) (UniProt P19784)
# Assay: as above
# Settings: compound 0.5 µM; ATP 10 µM
row,SMILES,residual activity [%]
1,COc1cc2nccc(Oc3ccc(NC(=S)NC(=O)c4ccccc4C)cc3)c2cc1OC,96.6
2,NC(=O)c1ccc(N(C(N)=O)c2c(F)cccc2F)nc1-c1ccc(F)cc1F,109
3,Clc1ccc(Nc2nnc(Cc3ccncc3)c3ccccc23)cc1,106
4,Cc1cc2ncc(-c3ccccc3)nc2cc1C,90.3

# Target: DMPK (human) (UniProt Q09013)
# Assay: as above
# Settings: compound 0.5 µM; ATP 10 µM
row,SMILES,residual activity [%]
1,COc1cc2nccc(Oc3ccc(NC(=S)NC(=O)c4ccccc4C)cc3)c2cc1OC,102
2,NC(=O)c1ccc(N(C(N)=O)c2c(F)cccc2F)nc1-c1ccc(F)cc1F,104
3,Clc1ccc(Nc2nnc(Cc3ccncc3)c3ccccc23)cc1,102
4,Cc1cc2ncc(-c3ccccc3)nc2cc1C,102
5,CS(=O)c1ccc(-c2nc(-c3ccc(F)cc3)c(-c3ccncc3)[nH]2)cc1 (centres undefined),103

# Target: DYRK1A (human) (UniProt Q13627)
# Assay: as above
# Settings: compound 0.5 µM; ATP 10 µM
row,SMILES,residual activity [%]
1,COc1cc2nccc(Oc3ccc(NC(=S)NC(=O)c4ccccc4C)cc3)c2cc1OC,95.4
2,NC(=O)c1ccc(N(C(N)=O)c2c(F)cccc2F)nc1-c1ccc(F)cc1F,98.7
3,Clc1ccc(Nc2nnc(Cc3ccncc3)c3ccccc23)cc1,102
4,Cc1cc2ncc(-c3ccccc3)nc2cc1C,89.9
5,CS(=O)c1ccc(-c2nc(-c3ccc(F)cc3)c(-c3ccncc3)[nH]2)cc1 (centres undefined),95.6

# Target: EGFR (human) (UniProt P00533)
# Assay: as above
# Settings: compound 0.5 µM; ATP 10 µM
row,SMILES,residual activity [%]
1,COc1cc2nccc(Oc3ccc(NC(=S)NC(=O)c4ccccc4C)cc3)c2cc1OC,89.7
2,NC(=O)c1ccc(N(C(N)=O)c2c(F)cccc2F)nc1-c1ccc(F)cc1F,92.7
3,Cc1cc2ncc(-c3ccccc3)nc2cc1C,84.5

# Target: EPHA4 (human) (UniProt P54764)
# Assay: as above
# Settings: compound 0.5 µM; ATP 10 µM
# EPHA4 (human), sequence (P54764 whole entry, looked up): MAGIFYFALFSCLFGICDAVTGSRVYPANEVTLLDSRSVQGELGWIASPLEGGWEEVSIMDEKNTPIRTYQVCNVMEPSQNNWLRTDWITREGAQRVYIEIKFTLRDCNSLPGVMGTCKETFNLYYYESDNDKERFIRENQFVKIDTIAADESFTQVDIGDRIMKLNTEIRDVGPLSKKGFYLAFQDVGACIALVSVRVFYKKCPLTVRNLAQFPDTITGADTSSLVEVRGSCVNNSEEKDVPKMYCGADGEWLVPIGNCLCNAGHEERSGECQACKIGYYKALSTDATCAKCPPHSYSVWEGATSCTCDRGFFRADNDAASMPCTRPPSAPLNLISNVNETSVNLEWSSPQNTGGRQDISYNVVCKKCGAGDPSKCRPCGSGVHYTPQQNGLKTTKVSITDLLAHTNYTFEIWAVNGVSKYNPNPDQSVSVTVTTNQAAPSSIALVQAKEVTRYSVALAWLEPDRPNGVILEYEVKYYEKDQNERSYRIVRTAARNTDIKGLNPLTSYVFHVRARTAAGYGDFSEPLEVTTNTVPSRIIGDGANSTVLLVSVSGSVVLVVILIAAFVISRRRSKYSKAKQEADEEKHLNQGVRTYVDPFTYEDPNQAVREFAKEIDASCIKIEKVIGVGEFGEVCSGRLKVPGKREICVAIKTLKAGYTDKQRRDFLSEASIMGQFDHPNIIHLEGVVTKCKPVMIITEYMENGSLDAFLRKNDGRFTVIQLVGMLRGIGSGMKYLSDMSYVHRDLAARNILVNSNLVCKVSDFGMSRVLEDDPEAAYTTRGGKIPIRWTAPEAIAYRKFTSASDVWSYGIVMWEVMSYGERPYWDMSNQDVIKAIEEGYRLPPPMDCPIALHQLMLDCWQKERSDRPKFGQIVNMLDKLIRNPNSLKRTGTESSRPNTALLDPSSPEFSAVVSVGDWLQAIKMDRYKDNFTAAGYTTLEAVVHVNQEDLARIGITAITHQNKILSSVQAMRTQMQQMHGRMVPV
row,SMILES,residual activity [%]
1,COc1cc2nccc(Oc3ccc(NC(=S)NC(=O)c4ccccc4C)cc3)c2cc1OC,81.4
2,NC(=O)c1ccc(N(C(N)=O)c2c(F)cccc2F)nc1-c1ccc(F)cc1F,105
3,Clc1ccc(Nc2nnc(Cc3ccncc3)c3ccccc23)cc1,102
4,Cc1cc2ncc(-c3ccccc3)nc2cc1C,95.4
5,CS(=O)c1ccc(-c2nc(-c3ccc(F)cc3)c(-c3ccncc3)[nH]2)cc1 (centres undefined),95.6

# Target: EPHA6 (human) (UniProt Q9UF33)
# Assay: as above
# Settings: compound 0.5 µM; ATP 10 µM
row,SMILES,residual activity [%]
1,COc1cc2nccc(Oc3ccc(NC(=S)NC(=O)c4ccccc4C)cc3)c2cc1OC,33
2,NC(=O)c1ccc(N(C(N)=O)c2c(F)cccc2F)nc1-c1ccc(F)cc1F,95
3,Clc1ccc(Nc2nnc(Cc3ccncc3)c3ccccc23)cc1,101
4,Cc1cc2ncc(-c3ccccc3)nc2cc1C,93
5,CS(=O)c1ccc(-c2nc(-c3ccc(F)cc3)c(-c3ccncc3)[nH]2)cc1 (centres undefined),57.2

# Target: EPHB1 (human) (UniProt P54762)
# Assay: as above
# Settings: compound 0.5 µM; ATP 10 µM
row,SMILES,residual activity [%]
1,COc1cc2nccc(Oc3ccc(NC(=S)NC(=O)c4ccccc4C)cc3)c2cc1OC,98.5
2,NC(=O)c1ccc(N(C(N)=O)c2c(F)cccc2F)nc1-c1ccc(F)cc1F,100
3,Clc1ccc(Nc2nnc(Cc3ccncc3)c3ccccc23)cc1,107
4,Cc1cc2ncc(-c3ccccc3)nc2cc1C,91.1
5,CS(=O)c1ccc(-c2nc(-c3ccc(F)cc3)c(-c3ccncc3)[nH]2)cc1 (centres undefined),93

# Target: HIPK3 (human) (UniProt Q9H422)
# Assay: as above
# Settings: compound 0.5 µM; ATP 10 µM
row,SMILES,residual activity [%]
1,COc1cc2nccc(Oc3ccc(NC(=S)NC(=O)c4ccccc4C)cc3)c2cc1OC,95.2
2,NC(=O)c1ccc(N(C(N)=O)c2c(F)cccc2F)nc1-c1ccc(F)cc1F,98.4
3,Clc1ccc(Nc2nnc(Cc3ccncc3)c3ccccc23)cc1,96.5
4,Cc1cc2ncc(-c3ccccc3)nc2cc1C,94.4
5,CS(=O)c1ccc(-c2nc(-c3ccc(F)cc3)c(-c3ccncc3)[nH]2)cc1 (centres undefined),103

# Target: IRAK4 (human) (UniProt Q9NWZ3)
# Assay: as above
# Settings: compound 0.5 µM; ATP 10 µM
# IRAK4 (human), sequence (Q9NWZ3 whole entry, looked up): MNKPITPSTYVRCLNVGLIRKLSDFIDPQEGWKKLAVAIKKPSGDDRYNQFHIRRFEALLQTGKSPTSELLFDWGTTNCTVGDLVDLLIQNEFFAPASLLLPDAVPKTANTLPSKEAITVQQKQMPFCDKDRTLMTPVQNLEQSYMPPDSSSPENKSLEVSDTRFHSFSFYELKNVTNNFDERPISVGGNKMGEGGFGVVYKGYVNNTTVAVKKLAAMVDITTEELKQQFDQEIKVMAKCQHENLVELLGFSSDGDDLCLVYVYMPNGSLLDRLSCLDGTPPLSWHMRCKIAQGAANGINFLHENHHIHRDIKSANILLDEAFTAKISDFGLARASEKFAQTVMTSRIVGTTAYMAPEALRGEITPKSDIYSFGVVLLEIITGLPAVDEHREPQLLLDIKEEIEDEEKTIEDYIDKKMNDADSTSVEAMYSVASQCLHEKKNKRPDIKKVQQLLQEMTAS
row,SMILES,residual activity [%]
1,COc1cc2nccc(Oc3ccc(NC(=S)NC(=O)c4ccccc4C)cc3)c2cc1OC,82.4
2,NC(=O)c1ccc(N(C(N)=O)c2c(F)cccc2F)nc1-c1ccc(F)cc1F,87.5
3,Clc1ccc(Nc2nnc(Cc3ccncc3)c3ccccc23)cc1,85.1
4,Cc1cc2ncc(-c3ccccc3)nc2cc1C,93.1
5,CS(=O)c1ccc(-c2nc(-c3ccc(F)cc3)c(-c3ccncc3)[nH]2)cc1 (centres undefined),130

# Target: ITK (human) (UniProt Q08881)
# Assay: as above
# Settings: compound 0.5 µM; ATP 10 µM
# ITK (human), sequence (Q08881 whole entry, looked up): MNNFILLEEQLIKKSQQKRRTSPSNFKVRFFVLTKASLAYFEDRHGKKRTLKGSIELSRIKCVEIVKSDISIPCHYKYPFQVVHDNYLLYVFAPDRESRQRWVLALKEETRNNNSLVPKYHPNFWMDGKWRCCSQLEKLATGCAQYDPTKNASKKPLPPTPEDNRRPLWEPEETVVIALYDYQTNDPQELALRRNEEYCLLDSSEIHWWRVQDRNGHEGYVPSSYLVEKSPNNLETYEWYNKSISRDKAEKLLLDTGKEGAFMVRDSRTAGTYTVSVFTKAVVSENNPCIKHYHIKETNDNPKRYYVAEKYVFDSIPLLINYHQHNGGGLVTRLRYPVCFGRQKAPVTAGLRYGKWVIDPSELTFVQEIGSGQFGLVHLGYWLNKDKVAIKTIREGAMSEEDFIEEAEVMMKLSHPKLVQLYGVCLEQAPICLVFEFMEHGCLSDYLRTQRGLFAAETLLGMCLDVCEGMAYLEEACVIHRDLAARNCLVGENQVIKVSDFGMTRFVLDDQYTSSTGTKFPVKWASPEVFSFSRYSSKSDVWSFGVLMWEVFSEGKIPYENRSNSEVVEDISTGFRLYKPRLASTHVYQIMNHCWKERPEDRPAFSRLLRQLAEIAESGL
row,SMILES,residual activity [%]
1,COc1cc2nccc(Oc3ccc(NC(=S)NC(=O)c4ccccc4C)cc3)c2cc1OC,80.6
2,NC(=O)c1ccc(N(C(N)=O)c2c(F)cccc2F)nc1-c1ccc(F)cc1F,105
3,Clc1ccc(Nc2nnc(Cc3ccncc3)c3ccccc23)cc1,103
4,Cc1cc2ncc(-c3ccccc3)nc2cc1C,100
5,CS(=O)c1ccc(-c2nc(-c3ccc(F)cc3)c(-c3ccncc3)[nH]2)cc1 (centres undefined),97

# Target: MAP3K14 (human) (UniProt Q99558)
# Assay: as above
# Settings: compound 0.5 µM; ATP 10 µM
row,SMILES,residual activity [%]
1,COc1cc2nccc(Oc3ccc(NC(=S)NC(=O)c4ccccc4C)cc3)c2cc1OC,106
2,NC(=O)c1ccc(N(C(N)=O)c2c(F)cccc2F)nc1-c1ccc(F)cc1F,114
3,Clc1ccc(Nc2nnc(Cc3ccncc3)c3ccccc23)cc1,126
4,Cc1cc2ncc(-c3ccccc3)nc2cc1C,112
5,CS(=O)c1ccc(-c2nc(-c3ccc(F)cc3)c(-c3ccncc3)[nH]2)cc1 (centres undefined),118

# Target: MAP3K8 (human) (UniProt P41279)
# Assay: as above
# Settings: compound 0.5 µM; ATP 10 µM
# MAP3K8 (human), sequence (P41279 whole entry, looked up): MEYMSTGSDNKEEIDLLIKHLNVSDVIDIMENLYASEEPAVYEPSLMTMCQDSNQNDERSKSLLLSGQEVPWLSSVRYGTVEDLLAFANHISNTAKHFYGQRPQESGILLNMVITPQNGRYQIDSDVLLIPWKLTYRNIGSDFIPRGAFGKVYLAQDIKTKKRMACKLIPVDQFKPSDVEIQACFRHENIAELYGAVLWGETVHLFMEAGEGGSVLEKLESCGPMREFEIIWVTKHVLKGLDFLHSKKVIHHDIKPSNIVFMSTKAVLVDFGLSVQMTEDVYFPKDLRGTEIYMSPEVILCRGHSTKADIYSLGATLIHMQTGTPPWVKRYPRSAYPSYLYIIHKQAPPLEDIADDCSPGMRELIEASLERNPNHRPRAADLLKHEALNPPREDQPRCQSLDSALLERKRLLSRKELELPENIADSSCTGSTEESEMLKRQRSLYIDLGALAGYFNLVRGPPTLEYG
row,SMILES,residual activity [%]
1,COc1cc2nccc(Oc3ccc(NC(=S)NC(=O)c4ccccc4C)cc3)c2cc1OC,94.1
2,NC(=O)c1ccc(N(C(N)=O)c2c(F)cccc2F)nc1-c1ccc(F)cc1F,94.3
3,Clc1ccc(Nc2nnc(Cc3ccncc3)c3ccccc23)cc1,98.2
